≈ marks a conversion by molar mass, not a printed value.
Columns and labels:
[1] = system: Mycolicibacterium smegmatis; assay: Ratio of MIC for Arr-1 positive Mycobacterium smegmatis DSM 43756 to MIC for Arr-1 negative Mycobacterium smegmatis DSM 43756Kml; type: functional
Staphylococcus aureus [2] = assay: Antimicrobial activity against rifampin-resistant Staphylococcus aureus ATCC 29213 rpoB (His481Tyr) mutant; type: functional
Escherichia coli [3] = assay: Antimicrobial activity against Arr-2 negative Escherichia coli DH5alpha bearing pCTF104P; type: functional
Staphylococcus aureus [4] = assay: Antimicrobial activity against rifampin-sensitive Staphylococcus aureus ATCC 29213; type: functional
Escherichia coli [5] = assay: Antimicrobial activity against Arr-2 negative Escherichia coli CGSC 5163 lpxC101 mutant bearing pCTV104P; type: functional
[6] = system: Mycolicibacterium smegmatis; assay: Antimicrobial activity against Arr-1 negative Mycobacterium smegmatis DSM 43756Kml; type: functional
Escherichia coli [7] = assay: Ratio of MIC for Arr-2 positive Escherichia coli DH5-alpha bearing pCTF104 to MIC for Arr-2 negative Escherichia coli DH5-alpha bearing pCTF104P; type: functional, DH5alpha
Escherichia coli [8] = assay: Antimicrobial activity against Arr-2 positive Escherichia coli DH5-alpha bearing pCTF104; type: functional; conditions: DH5alpha
Escherichia coli [9] = assay: Antimicrobial activity against Arr-2 positive Escherichia coli CGSC 5163 lpxC101 mutant bearing pCTV104; type: functional
[10] = system: Mycolicibacterium smegmatis; assay: Antimicrobial activity against Arr-1 positive Mycobacterium smegmatis DSM 43756; type: functional
Escherichia coli [11] = assay: Ratio of MIC for Arr-2 positive Escherichia coli CGSC 5163 lpxC101 mutant bearing pCTV104 to MIC for Arr-2 negative Escherichia coli CGSC 5163 lpxC101 mutant bearing pCTV104P; type: functional

Row | SMILES | Ratio [1] | MIC (Staphylococcus aureus [2]) [µg/mL] | MIC (Escherichia coli [3]) [µg/mL] | MIC (Staphylococcus aureus [4]) [µg/mL] | MIC (Escherichia coli [5]) [µg/mL] | MIC [6] [µg/mL] | Ratio (Escherichia coli [7]) | MIC (Escherichia coli [8]) [µg/mL] | MIC (Escherichia coli [9]) [µg/mL] | MIC [10] [µg/mL] | Ratio (Escherichia coli [11])
1 | CO[C@H]1/C=C/O[C@@]2(C)Oc3c(C)c(O)c4c(c3C2=O)C(=O)C(N2CCOCC2)=C(NC(=O)/C(C)=C\C=C\[C@H](C)[C@H](O)[C@@H](C)[C@@H](O)[C@@H](C)[C@H](OC(=O)NCCN(C)C)[C@@H]1C)C4=O | 4 | > 63 | 4 (≈ 4.69 µM) | 0.006 (≈ 0.00703 µM) | 0.24 (≈ 0.281 µM) | 0.12 (≈ 0.141 µM) | 2 | 8 (≈ 9.38 µM) | 0.24 (≈ 0.281 µM) | 0.5 (≈ 0.586 µM) | 1
2 | CO[C@H]1/C=C/O[C@@]2(C)Oc3c(C)c(O)c4c(c3C2=O)C(=O)C(N2CCOCC2)=C(NC(=O)/C(C)=C\C=C\[C@H](C)[C@H](O)[C@@H](C)[C@@H](O)[C@@H](C)[C@H](OC(=O)NCc2cc(-c3ccccn3)no2)[C@@H]1C)C4=O | 1 | > 63 | 4 (≈ 4.26 µM) | 0.008 (≈ 0.00851 µM) | 2 (≈ 2.13 µM) | 0.5 (≈ 0.532 µM) | 1 | 4 (≈ 4.26 µM) | 2 (≈ 2.13 µM) | 0.5 (≈ 0.532 µM) | 
3 | CO[C@H]1/C=C/O[C@@]2(C)Oc3c(C)c(O)c4c(c3C2=O)C(=O)C(N2CCOCC2)=C(NC(=O)/C(C)=C\C=C\[C@H](C)[C@H](O)[C@@H](C)[C@@H](O)[C@@H](C)[C@H](OC(=O)NCc2ccc(C(F)(F)F)cc2)[C@@H]1C)C4=O | >4 |  | > 250 | 0.03 (≈ 0.0319 µM) | 0.5 (≈ 0.532 µM) | ≤ 0.03 |  | > 250 | 1 (≈ 1.06 µM) | 0.12 (≈ 0.128 µM) | 2
4 | CO[C@H]1/C=C/O[C@@]2(C)Oc3c(C)c(O)c4c(O)c(c(/C=N/N5CCN(C)CC5)c(O)c4c3C2=O)NC(=O)/C(C)=C\C=C\[C@H](C)[C@H](O)[C@@H](C)[C@@H](O)[C@@H](C)[C@H](OC(C)=O)[C@@H]1C [RIFAMPIN] | 64 | > 63 | 8 (≈ 9.72 µM) | 0.008 (≈ 0.00972 µM) | 0.24 (≈ 0.292 µM) | 0.5 (≈ 0.608 µM) | >32 | > 250 | 8 (≈ 9.72 µM) | 32 (≈ 38.9 µM) | 32
5 | CO[C@H]1/C=C/O[C@@]2(C)Oc3c(C)c(O)c4c(c3C2=O)C(=O)C(N2CCOCC2)=C(NC(=O)/C(C)=C\C=C\[C@H](C)[C@H](O)[C@@H](C)[C@@H](O)[C@@H](C)[C@H](OC(=O)N2CCOCC2)[C@@H]1C)C4=O | 2 |  | 31 (≈ 36.4 µM) | 0.03 (≈ 0.0352 µM) | 1 (≈ 1.17 µM) | 1 (≈ 1.17 µM) | 2 | 63 (≈ 73.9 µM) | 1 (≈ 1.17 µM) | 2 (≈ 2.35 µM) | 1
6 | CO[C@H]1/C=C/O[C@@]2(C)Oc3c(C)c(O)c4c(c3C2=O)C(=O)C(N2CCOCC2)=C(NC(=O)/C(C)=C\C=C\[C@H](C)[C@H](O)[C@@H](C)[C@@H](O)[C@@H](C)[C@H](OC(=O)NCCO)[C@@H]1C)C4=O | 4 | 16 (≈ 19.4 µM) | 8 (≈ 9.69 µM) | 0.016 (≈ 0.0194 µM) | 0.5 (≈ 0.605 µM) | 2 (≈ 2.42 µM) | >32 | > 250 | 8 (≈ 9.69 µM) | 8 (≈ 9.69 µM) | 16
7 | CNC(=O)O[C@H]1[C@H](C)[C@H](O)[C@H](C)[C@@H](O)[C@@H](C)/C=C/C=C(/C)C(=O)NC2=C(N3CCOCC3)C(=O)c3c(c(O)c(C)c4c3C(=O)[C@@](C)(O/C=C/[C@H](OC)[C@H]1C)O4)C2=O | 8 | 4 (≈ 5.03 µM) | 8 (≈ 10.1 µM) | 0.004 (≈ 0.00503 µM) | 0.5 (≈ 0.628 µM) | 0.5 (≈ 0.628 µM) | >32 | > 250 | 16 (≈ 20.1 µM) | 4 (≈ 5.03 µM) | 32
8 | COc1ccccc1-c1cc(CNC(=O)O[C@H]2[C@H](C)[C@H](O)[C@H](C)[C@@H](O)[C@@H](C)/C=C/C=C(/C)C(=O)NC3=C(N4CCOCC4)C(=O)c4c(c(O)c(C)c5c4C(=O)[C@@](C)(O/C=C/[C@H](OC)[C@H]2C)O5)C3=O)on1 | 1 |  | > 250 | 0.06 (≈ 0.0619 µM) | 1 (≈ 1.03 µM) | 0.12 (≈ 0.124 µM) |  | > 250 | 2 (≈ 2.06 µM) | 0.12 (≈ 0.124 µM) | 2
9 | CO[C@H]1/C=C/O[C@@]2(C)Oc3c(C)c(O)c4c(c3C2=O)C(=O)C(N2CCOCC2)=C(NC(=O)/C(C)=C\C=C\[C@H](C)[C@H](O)[C@@H](C)[C@@H](O)[C@@H](C)[C@H](OC(=O)NCc2cccc(Cl)c2)[C@@H]1C)C4=O | >4 | > 63 | > 250 | 0.008 (≈ 0.00883 µM) | 0.24 (≈ 0.265 µM) | ≤ 0.03 |  | > 250 | 0.5 (≈ 0.552 µM) | 0.12 (≈ 0.132 µM) | 2
10 | CO[C@H]1/C=C/O[C@@]2(C)Oc3c(C)c(O)c4c(c3C2=O)C(=O)C(N2CCOCC2)=C(NC(=O)/C(C)=C\C=C\[C@H](C)[C@H](O)[C@@H](C)[C@@H](O)[C@@H](C)[C@H](OC(=O)NCc2ccc(N(C)C)cc2)[C@@H]1C)C4=O | 1 | > 63 | 63 (≈ 68.8 µM) | 0.06 (≈ 0.0656 µM) | 1 (≈ 1.09 µM) | 0.06 (≈ 0.0656 µM) | >4 | > 250 | 16 (≈ 17.5 µM) | 0.06 (≈ 0.0656 µM) | 16
11 | C=CCNC(=O)O[C@H]1[C@H](C)[C@H](O)[C@H](C)[C@@H](O)[C@@H](C)/C=C/C=C(/C)C(=O)NC2=C(N3CCOCC3)C(=O)c3c(c(O)c(C)c4c3C(=O)[C@@](C)(O/C=C/[C@H](OC)[C@H]1C)O4)C2=O | >32 |  | 8 (≈ 9.73 µM) | 0.004 (≈ 0.00487 µM) | 0.24 (≈ 0.292 µM) | 0.06 (≈ 0.073 µM) | >32 | > 250 | 4 (≈ 4.87 µM) | 2 (≈ 2.43 µM) | 16
12 | COc1ccc(CNC(=O)O[C@H]2[C@H](C)[C@H](O)[C@H](C)[C@@H](O)[C@@H](C)/C=C/C=C(/C)C(=O)NC3=C(N4CCOCC4)C(=O)c4c(c(O)c(C)c5c4C(=O)[C@@](C)(O/C=C/[C@H](OC)[C@H]2C)O5)C3=O)cc1 | 2 | 4 (≈ 4.43 µM) | 16 (≈ 17.7 µM) | 0.016 (≈ 0.0177 µM) | 0.5 (≈ 0.554 µM) | 0.03 (≈ 0.0333 µM) | >16 | > 250 | 0.5 (≈ 0.554 µM) | 0.06 (≈ 0.0665 µM) | 1
13 | CO[C@H]1/C=C/O[C@@]2(C)Oc3c(C)c(O)c4c(c3C2=O)C(=O)C(N2CCOCC2)=C(NC(=O)/C(C)=C\C=C\[C@H](C)[C@H](O)[C@@H](C)[C@@H](O)[C@@H](C)[C@H](OC(=O)N2CCC(NCc3ccccc3)CC2)[C@@H]1C)C4=O | 1 | > 63 | 8 (≈ 8.38 µM) | 0.03 (≈ 0.0314 µM) | 0.24 (≈ 0.251 µM) | 0.12 (≈ 0.126 µM) | 2 | 16 (≈ 16.8 µM) | 0.24 (≈ 0.251 µM) | 0.12 (≈ 0.126 µM) | 1

Reference: ChEMBL document CHEMBL1138397, “New C25 carbamate rifamycin derivatives are resistant to inactivation by ADP-ribosyl transferases” (2007)
